From publication PMC12434071, “Platinum-group metal half-sandwich complexes of 1-(α-D-glucopyranosyl)-4-hetaryl-1,2,3-triazoles: synthesis, solution equilibrium studies, and investigation of their anticancer and antimicrobial activities” (Frontiers in Chemistry, 2025)

How the values were obtained:
Format in all cases: cell-based
[1] = system: human primary dermal fibroblasts; experiment: SRB assay on human primary dermal fibroblasts; details: maximal inhibition; 48 h treatment; maximum concentration 100 µM
Experimental: (§1) FIGURE 7 The ruthenium, osmium, and iridium complexes of ligands 4a, 4b, and 5a are cytostatic on ovarian cancer models with a good therapeutic index. For SRB assays, 1.5 × 10^3 A2780 cells, 1.5 × 10^3 ID8 cells, or 4 × 10^3 primary fibroblasts were plated into 96-well plates. Cells were treated with the compounds in the concentrations indicated for 48 h. Data are represented as average ± SD, from four biological replicates on A2780 and human primary fibroblasts, except in the case of Os complexes, where experiments were performed in three biological replicates. ID8 cells were assessed in three biological replicates. Individual assays were performed in duplicate. Values were normalized for vehicle-treated cells, and the absorbance for vehicle-treated cells equals 1. Normality was assessed using the D’Agostino–Pearson test. Statistical significance was assessed using a two-way ANOVA test followed by Tukey’s post hoc test. For better visibility, normality, transformations, statistical tests, and p values are presented in an MS Excel sheet at https://figshare.com/s/3a0aa60b66f3f746f41e. Color code: black—free ligand (4a,b or 5a), khaki—ruthenium complex (Ru-4a,b), blue—osmium complex (Os-4a,b or Os-5a), green—iridium complex (Ir-4a,b), and red—rhodium complex (Rh-4a,b). An SRB assay measures protein content of cells in correlation with the cell number in an assay well and can therefore be used to assess cell proliferation or long-term cytostasis ([Skehan et al., 1990]). Cells were seeded into 96-well plates the day before the treatment for the assay. Cells were treated with the various compounds for 48 h. Then, the medium was removed, and cells were fixed with 10% trichloroacetic acid. Fixed cells were washed in distilled water three times, followed by staining with SRB (0.4 m/V% dissolved in 1% acetic acid) for 10 min. Stained cells were washed in 1% acetic acid five times; the acetic acid was removed, and the cells were left to dry. […] Plates were measured in a plate photometer (Thermo Scientific Multiscan GO spectrophotometer, Waltham, MA, United States) at 540 nm. […]

[2] = system: ID8 cells; experiment: MTT reduction assay on ID8 cells; details: maximal inhibition; 4 h treatment; maximum concentration 100 µM
Experimental: FIGURE 5 The ruthenium, osmium, and iridium complexes of ligands 4a, 4b, and 5a decrease MTT reduction. For MTT assays, 4 × 10^3 A2780 cells, 3 × 10^3 ID8 cells, or 6 × 10^3 human primary fibroblasts were plated into 96-well plates. Cells were treated with the compounds in the concentrations indicated for 4 h. Data are represented as average ± SD, from four biological replicates on A2780, and from three biological replicates on ID8 and human primary fibroblasts. For the datasets of 5a and Os-5a on human primary fibroblasts, the data represent four biological replicates. Individual assays were performed in duplicate. Values were normalized for vehicle-treated cells, and the absorbance for vehicle-treated cells equals 1. Normality was assessed using the D'Agostino-Pearson test. Statistical significance was assessed using a two-way ANOVA test followed by Tukey's post hoc test. For better visibility, normality, transformations, statistical tests, and p values are presented in an MS Excel sheet at https://figshare.com/s/3a0aa60b66f3f746f41e. Color code: black-free ligand (4a,b or 5a), khaki-ruthenium complex (Ru-4a,b), green-iridium complex (Ir-4a,b), blue-osmium complex (Os-4a,b or Os-5a), and red-rhodium complex (Rh-4a,b). An MTT reduction assay measures the activity of mitochondrial complex I and can be used to detect toxicity ([[…] et al., 2016]). The assay was performed in a manner similar to that described by [[…] et al. (2023b)]. Briefly, cells were plated into 96-well plates the day before the assay. Cells were treated with the compounds for 4 h; then, MTT was added to a 0.5 mg/mL final concentration, and cells were incubated at 37°C in a cell incubator for 40-60 min, as a function of the cell line being assessed. The culture medium was removed, the reduced MTT dye was dissolved in dimethylsulfoxide, and plates were measured in a plate photometer (Thermo Scientific Multiscan GO spectrophotometer, Waltham, MA, United States) at 540 nm. […] In calculations, the readings for these wells were considered to 1, and all readings were expressed relative to these values. […]

[3] = system: ID8 cells; experiment: SRB assay on ID8 cells; details: maximal inhibition; 48 h treatment; maximum concentration 100 µM
Experimental: as §1

Row | SMILES | Fibroblast SRB max % [1] [%] | ID8 MTT max % [2] [%] | ID8 SRB max % [3] [%]
1 | O=C(OC[C@H]1O[C@H](n2cc(-c3ccccn3)nn2)[C@H](OC(=O)c2ccccc2)[C@@H](OC(=O)c2ccccc2)[C@@H]1OC(=O)c1ccccc1)c1ccccc1 [Complex 4a, 1-(2’,3’,4’,6’-Tetra-O-benzoyl-α-D-glucopyranosyl)-4-(pyridin-2-yl)-1,2,3-triazole] | 11.89 | 0 | 0
2 | O=C(OC[C@H]1O[C@H](n2cc(-c3ccc4ccccc4n3)nn2)[C@H](OC(=O)c2ccccc2)[C@@H](OC(=O)c2ccccc2)[C@@H]1OC(=O)c1ccccc1)c1ccccc1 [Complex 4b, 1-(2’,3’,4’,6’-Tetra-O-benzoyl-α-D-glucopyranosyl)-4-(quinolin-2-yl)-1,2,3-triazole] | 10.76 | 0 | 0
3 | CCCCC(=O)OC[C@H]1O[C@H](n2cc(-c3ccccn3)nn2)[C@H](OC(=O)CCCC)[C@@H](OC(=O)CCCC)[C@@H]1OC(=O)CCCC [Complex 5a, 1-(2’,3’,4’,6’-Tetra-O-pentanoyl-α-D-glucopyranosyl)-4-(pyridin-2-yl)-1,2,3-triazole] | 27.97 | 15.89 | 0
